From patent US20230019236A1, “PROTEIN TYROSINE PHOSPHATASE INHIBITORS AND METHODS OF USE THEREOF” (Calico Life Sciences LLC, priority 2019, published 2023)

Biological target: T1, His tagged full-length PTP1B protein (Homo sapiens, UniProt P18031)
T1 construct: made in house
T1 sequence (P18031 with tags, fused parts or gaps): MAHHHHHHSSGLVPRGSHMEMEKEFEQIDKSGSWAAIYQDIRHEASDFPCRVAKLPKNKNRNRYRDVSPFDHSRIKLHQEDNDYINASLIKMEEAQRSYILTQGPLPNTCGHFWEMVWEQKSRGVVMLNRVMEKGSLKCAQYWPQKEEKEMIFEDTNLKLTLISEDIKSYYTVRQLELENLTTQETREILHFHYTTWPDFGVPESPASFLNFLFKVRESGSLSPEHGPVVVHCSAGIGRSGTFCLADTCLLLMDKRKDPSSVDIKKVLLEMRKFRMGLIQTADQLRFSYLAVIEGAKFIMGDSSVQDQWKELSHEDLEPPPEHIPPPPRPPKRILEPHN
Assay: Mobility Shift Assay (MSA) used to determine potency of PTP1B inhibitors
Assay type: biochemical
Settings: Table 2
Method: The enzymatic assay used to determine activity is a mobility shift assay using a LabChip EZ Reader by Caliper Life Sciences. The enzymatic reaction was carried out in assay buffer (50 mM HEPES pH 7.5, 1 mM EGTA, 10 mM EDTA, 0.01% Tween® 20, and 2 mM DTT). […] The enzyme (at 0.5 nM) was incubated with compound for 10 minutes at room temperature. […] The % inhibition was then used to calculate the IC50 values.

Row | SMILES | IC50 [nM]
1 | O=C1CN(c2c(O)cc3ccc(CC4CNC4)cc3c2F)S(=O)(=O)N1 [Compound 267, 5-{7-[(azetidin-3-yl)methyl]-1-fluoro-3-hydroxynaphthalen-2-yl}-1λ^6,2,5-thiadiazolidine-1,1,3-trione] | 10 to 100
2 | COc1ccc2c(Br)c(O)c(N3CC(=O)NS3(=O)=O)c(F)c2c1 [Compound 243, 5-(4-bromo-1-fluoro-3-hydroxy-7-methoxynaphthalen-2-yl)-1λ^6,2,5-thiadiazolidine-1,1,3-trione] | > 100
3 | O=C1CN(c2c(O)cc3ccc(NCCC(F)(F)F)cc3c2F)S(=O)(=O)N1 [Compound 169, 5-{1-fluoro-3-hydroxy-7-[(3,3,3-trifluoropropyl)amino]naphthalen-2-yl}-1λ^6,2,5-thiadiazolidine-1,1,3-trione] | 10 to 100
4 | O=C1CN(c2c(O)cc3ccc(C4CNC4)cc3c2F)S(=O)(=O)N1 [Compound 226, 5-[7-(azetidin-3-yl)-1-fluoro-3-hydroxynaphthalen-2-yl]-1λ^6,2,5-thiadiazolidine-1,1,3-trione] | 10 to 100
5 | N#CCc1ccc2cc(O)c(N3CC(=O)NS3(=O)=O)c(F)c2c1 [Compound 228, [8-fluoro-6-hydroxy-7-(1,1,4-trioxo-1λ^6,2,5-thiadiazolidin-2-yl)naphthalen-2-yl]acetonitrile] | 10 to 100
6 | CP(C)(=O)c1ccc(-c2ccc3cc(O)c(N4CC(=O)NS4(=O)=O)c(F)c3c2)s1 [Compound 141, 5-{7-[5-(dimethylphosphoryl)thiophen-2-yl]-1-fluoro-3-hydroxynaphthalen-2-yl}-1λ^6,2,5-thiadiazolidine-1,1,3-trione] | 1 to 10
7 | O=C(O)CNc1ccc2cc(O)c(N3CC(=O)NS3(=O)=O)c(F)c2c1 [Compound 280, {[8-fluoro-6-hydroxy-7-(1,1,4-trioxo-1λ^6,2,5-thiadiazolidin-2-yl)naphthalen-2-yl]amino}acetic acid] | > 100
8 | CC1(COc2ccc3cc(O)c(N4CC(=O)NS4(=O)=O)c(F)c3c2)COC1 [Compound 230, 5-{1-fluoro-3-hydroxy-7-[(3-methyloxetan-3-yl)methoxy]naphthalen-2-yl}-1λ^6,2,5-thiadiazolidine-1,1,3-trione] | > 100
9 | COCCNc1ccc2cc(O)c(N3CC(=O)NS3(=O)=O)c(F)c2c1 [Compound 179, 5-{1-fluoro-3-hydroxy-7-[(2-methoxyethyl)amino]naphthalen-2-yl}-1λ^6,2,5-thiadiazolidine-1,1,3-trione] | > 100
10 | COc1ccc2c(F)c(O)c(N3CC(=O)NS3(=O)=O)c(F)c2c1 [Compound 117, 5-(1,4-difluoro-3-hydroxy-7-methoxynaphthalen-2-yl)-1λ^6,2,5-thiadiazolidine-1,1,3-trione] | 1 to 10
11 | O=C1CN(c2c(O)cc3ccc(-c4cccnc4)cc3c2F)S(=O)(=O)N1 [Compound 266, 5-[1-fluoro-3-hydroxy-7-(pyridin-3-yl)naphthalen-2-yl]-1λ^6,2,5-thiadiazolidine-1,1,3-trione] | > 100
12 | C[C@@H](O)CCOc1ccc2cc(O)c(N3CC(=O)NS3(=O)=O)c(F)c2c1 [Compound 149, 5-{1-fluoro-3-hydroxy-7-[(3R)-3-hydroxybutoxy]naphthalen-2-yl}-1λ^6,2,5-thiadiazolidine-1,1,3-trione] | 1 to 10
13 | COCC1(CCOc2ccc3cc(O)c(N4CC(=O)NS4(=O)=O)c(F)c3c2)CC1 [Compound 160, 5-(1-fluoro-3-hydroxy-7-{2-[1-(methoxymethyl)cyclopropyl]ethoxy}naphthalen-2-yl)-1λ^6,2,5-thiadiazolidine-1,1,3-trione] | 1 to 10
14 | O=C1CN(c2c(O)cc3ccc(NCCc4ccccc4)cc3c2F)S(=O)(=O)N1 [Compound 164, 5-{1-fluoro-3-hydroxy-7-[(2-phenylethyl)amino]naphthalen-2-yl}-1λ^6,2,5-thiadiazolidine-1,1,3-trione] | > 100
15 | O=C1CN(c2c(O)cc3ccc(OCCNC4CC4)cc3c2F)S(=O)(=O)N1 [Compound 142, 5-{7-[2-(cyclopropylamino)ethoxy]-1-fluoro-3-hydroxynaphthalen-2-yl}-1λ^6,2,5-thiadiazolidine-1,1,3-trione] | 10 to 100
16 | O=C1CN(c2c(O)cc3ccc(OCCC(F)(F)F)cc3c2F)S(=O)(=O)N1 [Compound 180, 5-[1-fluoro-3-hydroxy-7-(3,3,3-trifluoropropoxy)naphthalen-2-yl]-1λ^6,2,5-thiadiazolidine-1,1,3-trione] | 10 to 100
17 | O=C1CN(c2c(O)cc3ccc(C4=CCOCC4)cc3c2F)S(=O)(=O)N1 [Compound 264, 5-[7-(3,6-dihydro-2H-pyran-4-yl)-1-fluoro-3-hydroxynaphthalen-2-yl]-1λ^6,2,5-thiadiazolidine-1,1,3-trione] | 10 to 100
18 | O=C1CN(c2c(O)cc3ccc(OCC4CC4)cc3c2F)S(=O)(=O)N1 [Compound 250, 5-[7-(cyclopropylmethoxy)-1-fluoro-3-hydroxynaphthalen-2-yl]-1λ^6,2,5-thiadiazolidine-1,1,3-trione] | 1 to 10
19 | O=C1CN(c2c(O)cc3ccc(OCCOCC4CC4)cc3c2F)S(=O)(=O)N1 [Compound 212, 5-{7-[2-(cyclopropylmethoxy)ethoxy]-1-fluoro-3-hydroxynaphthalen-2-yl}-1λ^6,2,5-thiadiazolidine-1,1,3-trione] | 1 to 10
20 | O=C1CN(c2c(O)cc3ccc(OCC(F)F)cc3c2F)S(=O)(=O)N1 [Compound 302, 5-[7-(2,2-difluoroethoxy)-1-fluoro-3-hydroxynaphthalen-2-yl]-1λ^6,2,5-thiadiazolidine-1,1,3-trione] | 10 to 100
21 | O=C1CN(c2c(O)cc3ccc(OCCN4CCCCC4)cc3c2F)S(=O)(=O)N1 [Compound 112, 5-{1-fluoro-3-hydroxy-7-[2-(piperidin-1-yl)ethoxy]naphthalen-2-yl}-1λ^6,2,5-thiadiazolidine-1,1,3-trione] | 10 to 100
22 | O=C1CN(c2c(O)cc3ccc(CO)cc3c2F)S(=O)(=O)N1 [Compound 185, 5-[1-fluoro-3-hydroxy-7-(hydroxymethyl)naphthalen-2-yl]-1λ^6,2,5-thiadiazolidine-1,1,3-trione] | 10 to 100

Further lines, results first:

Row | IC50 [nM] | SMILES
23 | < 1 | O=C1CN(c2c(O)cc3ccc(-c4cnn(CC5CC5)c4)cc3c2F)S(=O)(=O)N1 [Compound 132, 5-{7-[1-(cyclopropylmethyl)-1H-pyrazol-4-yl]-1-fluoro-3-hydroxynaphthalen-2-yl}-1λ^6,2,5-thiadiazolidine-1,1,3-trione]
24 | < 1 | O=C1CN(c2c(O)cc3ccc(C4=CCN(S(=O)(=O)c5ccsc5)C4)cc3c2F)S(=O)(=O)N1 [Compound 314, 5-{1-fluoro-3-hydroxy-7-[1-(thiophene-3-sulfonyl)-2,5-dihydro-1H-pyrrol-3-yl]naphthalen-2-yl}-1λ^6,2,5-thiadiazolidine-1,1,3-trione]
25 | > 100 | O=C1CN(c2c(O)cc3ccc(OCCO)cc3c2F)S(=O)(=O)N1 [Compound 277, 5-[1-fluoro-3-hydroxy-7-(2-hydroxyethoxy)naphthalen-2-yl]-1λ^6,2,5-thiadiazolidine-1,1,3-trione]
26 | < 1 | O=C1CN(c2c(O)cc3ccc(C4=CCN(S(=O)(=O)CCCC(F)(F)F)C4)cc3c2F)S(=O)(=O)N1 [Compound 290, 5-{1-fluoro-3-hydroxy-7-[1-(4,4,4-trifluorobutane-1-sulfonyl)-2,5-dihydro-1H-pyrrol-3-yl]naphthalen-2-yl}-1λ^6,2,5-thiadiazolidine-1,1,3-trione]
27 | 1 to 10 | CCP(=O)(CC)CCCOc1ccc2cc(O)c(N3CC(=O)NS3(=O)=O)c(F)c2c1 [Compound 146, 5-{7-[3-(diethylphosphoryl)propoxy]-1-fluoro-3-hydroxynaphthalen-2-yl}-1λ^6,2,5-thiadiazolidine-1,1,3-trione]
28 | 10 to 100 | CC(C)NCCOc1ccc2cc(O)c(N3CC(=O)NS3(=O)=O)c(F)c2c1 [Compound 145, 5-(1-fluoro-3-hydroxy-7-{2-[(propan-2-yl)amino]ethoxy}naphthalen-2-yl)-1λ^6,2,5-thiadiazolidine-1,1,3-trione]
29 | 1 to 10 | [2H]C([2H])([2H])Oc1ccc2cc(O)c(N3CC(=O)NS3(=O)=O)c(F)c2c1 [Compound 118, 5-{1-fluoro-3-hydroxy-7-[(2H3)methyloxy]naphthalen-2-yl}-1λ^6,2,5-thiadiazolidine-1,1,3-trione]
30 | 10 to 100 | O=C1CN(c2c(O)cc3ccc(NCCNS(=O)(=O)C4CC4)cc3c2F)S(=O)(=O)N1 [Compound 125, N-(2-{[8-fluoro-6-hydroxy-7-(1,1,4-trioxo-1λ^6,2,5-thiadiazolidin-2-yl)naphthalen-2-yl]amino}ethyl)cyclopropanesulfonamide]
31 | < 1 | O=C1CN(c2c(O)cc3ccc(C4=CCN(S(=O)(=O)C5CCC5)C4)cc3c2F)S(=O)(=O)N1 [Compound 316, 5-{7-[1-(cyclobutanesulfonyl)-2,5-dihydro-1H-pyrrol-3-yl]-1-fluoro-3-hydroxynaphthalen-2-yl}-1λ^6,2,5-thiadiazolidine-1,1,3-trione]
32 | 1 to 10 | O=C1CN(c2c(O)cc3ccc(C4=CCNC4)cc3c2F)S(=O)(=O)N1 [Compound 265, 5-[7-(2,5-dihydro-1H-pyrrol-3-yl)-1-fluoro-3-hydroxynaphthalen-2-yl]-1λ^6,2,5-thiadiazolidine-1,1,3-trione]
33 | < 1 | O=C1CN(c2c(O)cc3ccc(OCCC4CC4)cc3c2F)S(=O)(=O)N1 [Compound 211, 5-[7-(2-cyclopropylethoxy)-1-fluoro-3-hydroxynaphthalen-2-yl]-1λ^6,2,5-thiadiazolidine-1,1,3-trione]
